Where two headings read alike, the source gives them in different places.
Tests used:
[1] = tested on: diet-induced obese male Long-Evans rats; experiment: 3 day body weight change in diet-induced obese rats after oral dosing; assay type: in vivo, rat; details: 10 mg/kg oral once a day for 3 days, 3 day cumulative, relative to vehicle control
Description: Vehicle consisted of 1% CMC and 0.25% PS-80 in water.
Animals were individually housed in a temperature regulated room (24° C.) with a reverse 12 hour light/dark cycle (dark 10:00/22:00). Water and food (Teklad 95217, Harlan, Wis.) were available ad libitum. Compounds were dosed orally once a day before onset of dark for 3 days. Daily food intake and body weight change were measured for the 3 day period.

human MCHR1 = molecular target: T1, human MCHR1 (Homo sapiens, UniProt Q99705); experiment: 125I-MCH competitive binding assay with clone 43 membranes; details: Ki from IC50 by Cheng-Prusoff
T1 construct: The full-length cDNA for human MCHR1 was cloned from a human adult brain cDNA library; expressed in transfected cells; host or cells: AV12 cells previously transfected with Galpha15
T1 sequence (Q99705 whole entry): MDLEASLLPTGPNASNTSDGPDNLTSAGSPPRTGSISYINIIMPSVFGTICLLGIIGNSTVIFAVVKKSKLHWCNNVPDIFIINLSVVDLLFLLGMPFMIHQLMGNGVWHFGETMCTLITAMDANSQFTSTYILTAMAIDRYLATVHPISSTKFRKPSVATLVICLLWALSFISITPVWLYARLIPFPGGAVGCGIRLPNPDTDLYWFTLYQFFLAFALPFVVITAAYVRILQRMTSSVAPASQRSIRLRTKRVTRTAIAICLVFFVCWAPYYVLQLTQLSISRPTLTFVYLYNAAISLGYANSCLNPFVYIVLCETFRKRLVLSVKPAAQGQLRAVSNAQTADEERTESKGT
Description: The full-length cDNA for human MCHR1 was cloned from a human adult brain cDNA library (Edge Biosystems, Cat. 38356) by standard polymerase chain reaction (PCR) methodology employing the following primers: sense, 5′-GCCACCATGGACCT GGAAGCCTCGCTGC-3′; anti-sense, 5′-[…]-3′. The PCR reaction was performed in a final volume of 50 μl containing 5 μl of a 10× stock solution of PCR buffer, 1 μl of 10 mM dNTP mixture (200 μM final), 2 μl of 50 mM Mg(SO4) (2 mM final), 0.5 μl of 20 μM solutions of each primer (0.2 μM final), 5 μl of template cDNA containing 0.5 ng DNA, 0.5 μl of Platinum Taq High Fidelity DNA polymerase (Gibco Life Technologies) and […] of H2O. PCR amplification was performed on a Perkin Elmer 9600 thermocycler. After denaturation for 90 sec at 94° C., the amplification sequence consisting of 94° C. for 25 sec, 55° C. for 25 sec and 72° C. for 2 min was repeated 30 times, followed by a final elongation step at 72° C. for 10 min. The desired PCR product (1.1 Kb) was confirmed by agarose gel electrophoresis and the band was extracted from the gel by Geneclean (Bio101) following the manufacturer's instructions. Following extraction, the cDNA fragment was cloned into pCR2.1-TOPO plasmid (Invitrogen Corp) to confirm the identity and sequence.
In order to generate cell lines stably expressing MCHR1, the insert was then subcloned into the Xba I and Not I sites of pcDNA(+)-3.1-neomycin (Invitrogen). After purification by Qiagen Maxi-prep kit (QIAGEN, Inc.), the plasmid was transfected by Fugene 6 (Roche Applied Science) into AV12 cells that had been previously transfected with the promiscuous G protein Gα15. The transfected cells were selected by G418 (800 μg/ml) for 10-14 days and single colonies were isolated from culture plates. The G418-resistant colonies were further selected for MCHR1 expression by measuring MCH-stimulated Ca^2+ transients with a fluorometric imaging plate reader (FLIPR, Molecular Devices).
Both the ^125I-MCH binding and functional GTPγ^35S binding assays employed membranes isolated from a clone designated as clone 43. Typically, cells from 20 confluent T225 flasks were processed by washing the monolayers in cold phosphate-buffered saline (PBS), scraping the cells into same and re-suspending the cell pellet in 35 ml of 250 mM Sucrose, 50 mM HEPES, pH 7.5, 1 mM MgCl2, 24 μg/ml DNase I, and protease inhibitors (1 Complete® tablet, per 50 ml of buffer prepared, Roche Diagnostics). […]
Binding of compounds to MCHR1 was assessed in a competitive binding assay employing ^125I-MCH, compound and clone 43 membranes. […] Non-specific binding is assessed in the presence of 0.1 μM unlabeled MCH. Bound ^125I-MCH is determined by placing sealed plates in a Microbeta Trilux (Perkin Elmer Life and Analytical Sciences Inc) and counting after a 12 hr delay. […]

| SMILES | Body weight reduction @ 10 mg/Kg versus vehicle control. Data expressed in grams. [1] [grams] | Ki (human MCHR1; read-out: Average MCHR1 Ki) [nM] | Ki (human MCHR1; Average MCHR1 Ki (nM)) [nM] |
| --- | --- | --- | --- |
| CN1CCC(N(C)c2nc3ccc(NC(=O)c4ccc(-c5ccc(F)cc5)cc4)cc3s2)C1 (single isomer, unassigned) [Example 107, 4′-Fluoro-biphenyl-4-carboxylic Acid {2-[methyl-(1-methyl-pyrrolidin-3-yl)-amino]-benzothiazol-6-yl}-amide] | 7.1 | 15.3 | – |
| CN1CCC(CN(C)c2nc3cc(NC(=O)c4ccc(-c5ccc(F)cc5)cc4)ccc3o2)C1 (single isomer, unassigned) [Example 34, 4′-Fluoro-biphenyl-4-carboxylic acid {2-[methyl-(1-methyl-pyrrolidin-3-ylmethyl)-amino]-benzooxazol-5-yl}-amide] | 5.8 | 8.79 | – |
| CN1CCC(N(C)c2nc3ccc(NC(=O)c4ccc(-c5ccc(F)cc5)cc4)cc3s2)C1 (single isomer, unassigned) [Example 106, 4′-Fluoro-biphenyl-4-carboxylic Acid {2-[methyl-(1-methyl-pyrrolidin-3-yl)-amino]-benzothiazol-6-yl}-amide] | 8.4 | 16.7 | – |
| CN1CCC(N(C)c2nc3cc(NC(=O)c4ccc(-c5ccc(F)cc5Cl)cc4)ccc3o2)CC1.Cl [Example 157, 2′-Chloro-4′-fluoro-biphenyl-4-carboxylic acid {2-[methyl-(1-methyl-piperidinyl)-amino]-benzooxazol-5-yl}-amide Hydrochloride] | 18 | – | 7.5 |

Source: patent US7838543B2, “MCH receptor antagonists” (Eli Lilly and Company, priority 2005, dated 2010)
